Laboratory results from ChEMBL document CHEMBL5042483, “Discovery and Mechanism of SARS-CoV-2 Main Protease Inhibitors” (J Med Chem, 2022).
The source made the active and inactive calls. The calls are words filed in the database; no cut-off is given here.

What was measured:
[1] = Inhibition of GST-tagged SARS-CoV-2 main protease expressed in Escherichia coli BL21 competent cells using DABCYL-Val-Asn-Ser-Thr-Leu-Gln-Ser-Gly-Leu-Arg-Lys-EDANS as substrate measured every 10 mins for 1 hr by FRET assay; parameters: species or system Severe acute respiratory syndrome coronavirus 2
[2] = system: SARS-CoV-2; type: functional, organism-based, Vero E6; details: Severe acute respiratory syndrome coronavirus 2, USA_WA1/2020, Vero C1008
[3] = Inhibition of SARS-CoV-2 main protease expressed in Escherichia coli using MCA-AVLQSGFR-Lys(Dnp)-Lys-NH2 as substrate by FRET assay; parameters: species or system Severe acute respiratory syndrome coronavirus 2
[4] = system: SARS-CoV-2; test: microbe, parasite or virus in culture; details: Severe acute respiratory syndrome coronavirus 2, Vero C1008, 24 h
[5] = Distribution coefficient, logD of compound at pH 7.4 by shake flask method; type: physicochemical; details: octanol/water
[6] = system: SARS-CoV-2; test: Antiviral activity against SARS-CoV-2 USA_WA1/2020 infected in human Calu-3 cells assessed as reduction in viral RNA replication pretreated for 1 hr with compound followed by viral infection for 1.5 hrs then followed by washout the cells and re-incubated with compounds for 24 hrs by qRT-PCR method; type: functional, organism-based; details: Severe acute respiratory syndrome coronavirus 2, USA_WA1/2020, Calu-3
[7] = system: Severe acute respiratory syndrome coronavirus 2; test: (§1) Reversible covalent inhibition of SARS-CoV-2 main protease expressed in Escherichia coli BL21 competent cells using DABCYL-Val-Asn-Ser-Thr-Leu-Gln-Ser-Gly-Leu-Arg-Lys-EDANS as fluorogenic substrate assessed as reduction in product formation at 10 uM incubated for 30 mins by dilution assay relative to control
[8] = system: Severe acute respiratory syndrome coronavirus 2; test: as §1, with “preincubated” for “incubated”, “mins in absence of DTT” for “mins”
[9] = system: Severe acute respiratory syndrome coronavirus 2; test: as §1, with “preincubated” for “incubated”, “mins in presence of DTT” for “mins”
[10] = system: Severe acute respiratory syndrome coronavirus 2; test: Competitive inhibition of SARS-CoV-2 main protease assessed as inhibitor concentration dependent Km with constant Vmax at 0.5 to 10 uM using varying concentrations of DABCYL-KTSAVLQ1SGFRKM-E(EDANS)-NH2 as substrate by double reciprocal plot analysis; details: dose 0.5-10 µM
[11] = system: Severe acute respiratory syndrome coronavirus 2; test: as §1, with “1” for “10”, “preincubated” for “incubated”, “mins in absence of DTT” for “mins”
[12] = system: Severe acute respiratory syndrome coronavirus 2; test: as §1, with “1” for “10”
[13] = system: Severe acute respiratory syndrome coronavirus 2; test: as §1, with “1” for “10”, “preincubated” for “incubated”, “mins in presence of DTT” for “mins”
[14] = Toxicity in human iPSC derived lung organoids infected with SARS-CoV-2 USA_WA1/2020 measured after 24 hrs
[15] = system: Severe acute respiratory syndrome coronavirus 2; test: Reversible covalent inhibition of SARS-CoV-2 main protease expressed in Escherichia coli BL21 competent cells using DABCYL-Val-Asn-Ser-Thr-Leu-Gln-Ser-Gly-Leu-Arg-Lys-EDANS as fluorogenic substrate assessed as reduction in product formation at 1 to 10 uM preincubated for 30 mins in presence of DTT by dilution assay; details: dose 1-10 µM

SMILES | IC50 [1] [µM] | EC50 [2] [µM] | also measured
COc1ccc(F)cc1-n1[se]c2ccccc2c1=O | 3.3 | > 20 | 
Cc1ccc(-n2[se]c3ccccc3c2=O)cc1C | > 10 | 12.2 | 
O=C[C@H](C[C@@H]1CCNC1=O)NC(=O)[C@H](Cc1cccc(F)c1)NC(=O)c1cc2ccccc2[nH]1 |  |  | IC50 [3]: 0.04 µM; EC50 [4]: 0.72 µM
O=c1c2ccccc2[se]n1-c1ccc(C(F)(F)F)cc1 | 0.9 | 11.2 | logD [5]: 3.19; EC50 [6]: 2.8 µM; inhibition [7]: 86%; inhibition [8]: 48%; inhibition [9]: 43%; inhibition [10]: Active; inhibition [11]: 44%
O=c1c2ccccc2[se]n1-c1ccc(F)cc1C(F)(F)F | > 10 | > 20 | 
CCc1ccc(-n2[se]c3ccccc3c2=O)cc1 | 6.18 | 6.5 | logD [5]: 2.87; EC50 [6]: 8.8 µM
CCCCCCCn1[se]c2ccccc2c1=O | 5.56 | 17.3 | 
CCC(CC)COC(=O)[C@H](C)NP(=O)(OC[C@H]1O[C@@](C#N)(c2ccc3c(N)ncnn23)[C@H](O)[C@@H]1O)Oc1ccccc1 (single isomer, unassigned) |  | 1.8 | EC50 [6]: 0.8 µM
O=c1c2ccccc2[se]n1-c1ccccc1F | > 10 | > 20 | 
O=c1c2ccccc2[se]n1-c1ccc(Br)cc1 | 2.77 | 5.2 | logD [5]: 1.46; EC50 [6]: 15.7 µM
O=c1c2ccccc2[se]n1-c1ccc(F)cc1 | 2.78 | 16.7 | 
O=c1c2ccccc2[se]n1-c1ccc(Cl)cc1OC(F)(F)F | > 10 | > 20 | 
COc1ccc(Cn2[se]c3ccccc3c2=O)cc1 | > 10 | > 20 | 
COc1ccc(-n2[se]c3ccccc3c2=O)cc1 | 1.25 | 1.7 | 
N#Cc1cccc(-n2[se]c3ccccc3c2=O)c1 | 0.38 | 2 | logD [5]: 1.45; inhibition [12]: 29%; inhibition [7]: 94%; inhibition [8]: 64%
O=c1c2ccccc2[se]n1-c1c(F)cccc1F | 2.09 | > 20 | 

SMILES | IC50 [1] [µM] | EC50 [2] [µM] | also measured
COc1cc(F)ccc1-n1[se]c2ccccc2c1=O | 1.8 | > 20 | 
COc1ccc(Cl)cc1-n1[se]c2ccccc2c1=O | > 10 | > 20 | 
O=c1c2ccccc2[se]n1Cc1ccc(C(F)(F)F)cc1 | > 10 | 11.2 | 
CCCCCCCCn1[se]c2ccccc2c1=O | 2.69 | > 20 | 
O=c1c2ccccc2[se]n1Cc1ccc(F)cc1 | 1 | > 20 | inhibition [13]: 53%
O=c1c2ccccc2[se]n1-c1cccc(C(F)(F)F)c1 | 2.77 | 0.8 | logD [5]: 3.18; EC50 [6]: 1.3 µM; Activity [14]: Non-Toxic
CSc1ccccc1-n1[se]c2ccccc2c1=O | > 10 | > 20 | 
COc1ccc2c(=O)n(-c3ccccc3)[se]c2c1 | 6.4 | 11.2 | 
Cc1ccc(-n2[se]c3ccccc3c2=O)cc1 | 2.29 | 15.4 | 
COc1cccc(-n2[se]c3ccccc3c2=O)c1 | > 10 | 15.1 | 
CCCCCn1[se]c2ccccc2c1=O | > 10 | > 20 | 
O=c1c2ccccc2[se]n1-c1cc(Cl)cc(Cl)c1 | 0.64 | 18.2 | logD [5]: 1.67; inhibition [15]: Active
COc1ccc(Cn2[se]c3ccccc3c2=O)c(OC)c1 | 0.61 | 26.5 | logD [5]: 0.85; inhibition [15]: Active
O=c1c2ccccc2[se]n1-c1cccc(Cl)c1 | 0.68 | 17.4 | logD [5]: 1.53; inhibition [15]: Active
O=c1c2ccccc2[se]n1-c1ccccc1 [EBSELEN] |  | > 20 | logD [5]: 0.92; EC50 [6]: 5 µM; inhibition [12]: 65%; inhibition [7]: 89%; inhibition [8]: 91%; inhibition [10]: Active
Cc1ccccc1-n1[se]c2ccccc2c1=O | 7.43 | 20.7 | 
